In PMC8815882, “Screening the pandemic response box identified benzimidazole carbamates, Olorofim and ravuconazole as promising drug candidates for the treatment of eumycetoma” (PLoS Neglected Tropical Diseases, 2022):
Values after ≈ are worked out from the molar mass of the structure shown. Read-outs that look alike come from different tables or passages of the source.

Legend:
M. mycetomatis = test: Drug static or cidal; assay type: cell-based, Madurella mycetomatis
From the text: Supplement pntd.0010159.s001.xlsx, sheet "Pandemic Box Master sheet" | column: Drug static or cidal

[1] = system: ten different M. mycetomatis isolates; test: MIC / MIC50 determination (XTT) in ten M. mycetomatis isolates; assay type: cell-based, Madurella mycetomatis; details: Madurella mycetomatis
M. mycetomatis MM55 = test: IC50 determination, 2-fold dilution series 16 to 0.03125 μM; assay type: cell-based, Madurella mycetomatis; details: for IC50 / IC90: Madurella mycetomatis
[2] = system: M. mycetomatis genome strain MM55; test: CLSI M38-A2 based in vitro susceptibility screening (XTT or resazurin), growth at fixed concentration; assay type: cell-based, Madurella mycetomatis; details: for activity at 25 µM / activity at 100 µM: Madurella mycetomatis
[3] = system: M. tropicana strain CBS206.47; test: CLSI M38-A2 based in vitro susceptibility screening at 25 μM; assay type: cell-based, Madurella tropicana; details: selected if >75% (resazurin) or >80% (XTT) fungal growth inhibited
[4] = system: F. senegalensis strain CBS132257; test: as above; assay type: cell-based, Falciformispora senegalensis; details: selected if >75% (resazurin) or >80% (XTT) fungal growth inhibited
[5] = system: Me. romeroi strain CBS128765; test: as above; assay type: cell-based, Medicopsis romeroi; details: selected if >75% (resazurin) or >80% (XTT) fungal growth inhibited
[6] = system: M. pseudomycetomatis strain Mex2A; test: as above; assay type: cell-based, Madurella pseudomycetomatis; details: selected if >75% (resazurin) or >80% (XTT) fungal growth inhibited
[7] = median MIC over ten M. mycetomatis isolates, no asterisk, read-out: MIC50
[8] = isolate CBS247.48, read-out: MIC CBS247.48
[9] = isolate MM55, read-out: MIC MM55
[10] = MM55, Table 2, M. mycetomatis MM55, read-out: IC50
[11] = MM55, mean of replicates, read-out: IC50 mean
[12] = MM55, mean of replicates, read-out: IC90 mean
[13] = MM55, replicate 1, read-out: IC50 1
[14] = MM55, replicate 1, read-out: IC90 1
[15] = MM55, replicate 2, read-out: IC50 2
[16] = MM55, replicate 2, read-out: IC90 2
[17] = MM55, replicate 3, read-out: IC50 3
[18] = MM55, replicate 3, read-out: IC90 3
[19] = mean of replicates, read-out: Percentage survival at 25um, 25 uM mean
[20] = replicate A, read-out: Percentage survival at 25um, 25 um A
[21] = replicate B, read-out: Percentage survival at 25um, 25 uM B
[22] = replicate C, read-out: Percentage survival at 25um, 25 uM C
[23] = mean of replicates, read-out: Percentage survival at 100um, 100 uM mean
[24] = replicate 1, read-out: Percentage survival at 100um, 100 uM A
[25] = replicate 2, read-out: Percentage survival at 100um, 100 uM A
[26] = replicate 3, read-out: Percentage survival at 100um, 100 uM A

Row | Compound | Drug static or cidal (M. mycetomatis) | MIC50 [1, 7] | MIC [1, 8] | MIC [1, 9] | MIC ([1]; isolate P1, read-out: MIC P1) | MIC ([1]; isolate So1, read-out: MIC So1) | MIC ([1]; isolate i1, read-out: MIC i1) | MIC ([1]; isolate i11, read-out: MIC i11) | IC50 (M. mycetomatis MM55; [10]) | IC50 (M. mycetomatis MM55; [11]) | IC90 (M. mycetomatis MM55; [12]) | IC50 (M. mycetomatis MM55; [13]) | IC90 (M. mycetomatis MM55; [14]) | IC50 (M. mycetomatis MM55; [15]) | IC90 (M. mycetomatis MM55; [16]) | IC50 (M. mycetomatis MM55; [17]) | IC90 (M. mycetomatis MM55; [18]) | activity at 25 µM [2, 20] | activity at 25 µM [2, 21] | activity at 25 µM [2, 22] | further results
1 | CCN(CC)CCn1c(=N)n(CC(O)COc2ccc(Cl)cc2Cl)c2ccccc21 (stereo not drawn) [MMV000725] | Cidal | 16 µM (≈ 7.22 µg/mL) | > 16 µM | > 16 µM | > 16 µM | 16 µM (≈ 7.22 µg/mL) | 16 µM (≈ 7.22 µg/mL) | > 16 µM | 8.21 µM | 8.22 µM | 18.7 µM | 2.8 µM | 13.2 µM | 9.6 µM | 21.1 µM | 12.2 µM | 21.8 µM | 3.92% | 1.56% | 2.57% | MIC50 ([1]; ten isolates, read-out: MIC50 mean): < 16 µM; MIC ([1]; isolate MM14, read-out: MIC MM14): > 16 µM; MIC ([1]; isolate MM45, read-out: MIC MM45): > 16 µM; MIC ([1]; isolate ParijsAl1, read-out: MIC ParijsAl1): > 16 µM; MIC ([1]; isolate Peru72012, read-out: MIC Peru72012): > 16 µM; activity at 25 µM [2, 19]: 2.68%; activity at 100 µM [2, 23]: 4.47%; activity at 100 µM [2, 24]: 4.59%; activity at 100 µM [2, 25]: 3.57%; activity at 100 µM [2, 26]: 5.25%
2 | COc1cc(C)c2c(Oc3cccc(C(F)(F)F)c3)c(OC)cc(NC(C)CCCN)c2n1 (stereo not drawn) [MMV000043, Tafenoquine, reference compound] | – | 4 µM (≈ 1.85 µg/mL) | 8 µM (≈ 3.71 µg/mL) | 4 µM (≈ 1.85 µg/mL) | 16 µM (≈ 7.42 µg/mL) | 16 µM (≈ 7.42 µg/mL) | 4 µM (≈ 1.85 µg/mL) | 4 µM (≈ 1.85 µg/mL) | 12.8 µM | – | – | 11.7 µM | 23.5 µM | 13.2 µM | 23.6 µM | 13.8 µM | 24.7 µM | -2.31% | 0.422% | 4.25% | Inhibits growth of Madurella tropicana at 25 μM [3]: inhibit the growth; MIC50 ([1]; over the isolates tested, read-out: MIC50 mean): 4 µM (≈ 1.85 µg/mL); Inhibits growth of Falciformispora senegalensis at 25 μM [4]: inhibit the growth; Drug static or cidal (M. mycetomatis MM55): Cidal; IC50 (M. mycetomatis MM55; MM55, mean, read-out: IC50 mean): 12.9 µM; IC90 (M. mycetomatis MM55; MM55, read-out: IC90 mean): 23.9 µM; Inhibits growth of Madurella mycetomatis at 25 μM ([2]; 25 μM, selected if >75% (resazurin) or >80% (XTT) fungal growth inhibited): inhibit the growth; activity at 25 µM ([2]; mean, read-out: Percentage survival at 25um, 25 uM mean): 0.788%; activity at 100 µM ([2]; mean, read-out: Percentage survival at 100um, 100 uM mean): 22.7%; activity at 100 µM ([2]; replicate (first column), read-out: Percentage survival at 100um, 100 uM A): 53.1%; activity at 100 µM ([2]; replicate (second column), read-out: Percentage survival at 100um, 100 uM A): 6.69%; activity at 100 µM ([2]; replicate (third column), read-out: Percentage survival at 100um, 100 uM A): 8.3%; Inhibits growth of Medicopsis romeroi at 25 μM [5]: inhibit the growth; Inhibits growth of Madurella pseudomycetomatis at 25 μM [6]: inhibit the growth
3 | Cc1ccc(S(=O)(=O)Nc2cccc3cccnc23)cc1 [MMV233495] | Static | – | – | – | – | – | – | – | – | > 25 µM | > 25 µM | 18.5 µM | > 25 µM | > 25 µM | > 25 µM | > 25 µM | > 25 µM | 5.12% | -0.547% | 46.8% | activity at 25 µM [2, 19]: 17.1%; activity at 100 µM [2, 23]: 31.3%; activity at 100 µM [2, 24]: -0.389%; activity at 100 µM [2, 25]: 38.9%; activity at 100 µM [2, 26]: 55.5%
